Measured values as given in ChEMBL document CHEMBL1201862, “PubChem BioAssay data set” (2004).
The source made the active and inactive calls.

What was measured:
Format in all cases: functional
[1] = target: Tyrosine-protein kinase receptor UFO (Homo sapiens, UniProt P30530)
[2] = target: Dual specificity protein kinase CLK4 (Homo sapiens, UniProt Q9HAZ1)
[3] = target: Mitogen-activated protein kinase 9 (Homo sapiens, UniProt P45984);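 also: value from a kinome panel profiling assay, MAPK9 panel entry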
[4] = target: Casein kinase II subunit alpha (Homo sapiens, UniProt P68400)
[5] = target: MAP kinase-activated protein kinase 5 (Homo sapiens, UniProt Q8IW41);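 also: measured as one member of a kinome panel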
[6] = target: Megakaryocyte-associated tyrosine-protein kinase (Homo sapiens, UniProt P42679);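 also: affinity measured as one member of a kinase panel (Navigating the Kinome) against MATK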
[7] = target: Serine/threonine-protein kinase TAO1 (Homo sapiens, UniProt Q7L7X3)
[8] = target: Lymphokine-activated killer T-cell-originated protein kinase (Homo sapiens, UniProt Q96KB5);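 also: value comes from a kinase panel screen in which TOPK was one of the panel members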
Lymphokine-activated killer T-cell-originated protein kinase, sequence (Q96KB5 whole entry): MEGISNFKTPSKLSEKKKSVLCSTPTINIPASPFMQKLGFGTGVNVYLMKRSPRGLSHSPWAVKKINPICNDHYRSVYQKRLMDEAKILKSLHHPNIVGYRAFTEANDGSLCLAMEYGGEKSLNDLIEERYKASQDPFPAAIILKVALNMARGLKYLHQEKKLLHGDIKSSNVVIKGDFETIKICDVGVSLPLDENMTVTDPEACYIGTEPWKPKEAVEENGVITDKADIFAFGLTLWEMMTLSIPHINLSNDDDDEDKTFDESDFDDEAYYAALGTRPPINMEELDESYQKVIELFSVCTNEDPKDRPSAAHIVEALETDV

[9] = target: MAP kinase-interacting serine/threonine-protein kinase 2 (Homo sapiens, UniProt Q9HBH9)
MAP kinase-interacting serine/threonine-protein kinase 2, sequence (Q9HBH9 whole entry): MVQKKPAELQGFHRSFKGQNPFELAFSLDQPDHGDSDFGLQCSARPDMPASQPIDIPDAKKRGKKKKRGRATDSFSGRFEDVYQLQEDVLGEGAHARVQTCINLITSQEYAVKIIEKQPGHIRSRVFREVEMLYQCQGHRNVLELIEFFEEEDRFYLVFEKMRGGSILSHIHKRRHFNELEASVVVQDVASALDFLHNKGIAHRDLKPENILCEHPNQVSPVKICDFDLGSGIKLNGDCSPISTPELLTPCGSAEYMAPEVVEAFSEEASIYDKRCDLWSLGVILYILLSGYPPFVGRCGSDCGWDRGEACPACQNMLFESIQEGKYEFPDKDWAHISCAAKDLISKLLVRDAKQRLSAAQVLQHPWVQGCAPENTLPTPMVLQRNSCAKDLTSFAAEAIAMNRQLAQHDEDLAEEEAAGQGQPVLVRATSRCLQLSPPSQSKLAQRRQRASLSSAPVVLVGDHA

[10] = target: Mitogen-activated protein kinase kinase kinase kinase 2 (Homo sapiens, UniProt Q12851);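 also: measured as one member of a kinome-wide kinase panel, with MAP4K2 as the panel entry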
[11] = target: Serine/threonine-protein kinase N2 (Homo sapiens, UniProt Q16513)
Serine/threonine-protein kinase N2, sequence (Q16513 whole entry): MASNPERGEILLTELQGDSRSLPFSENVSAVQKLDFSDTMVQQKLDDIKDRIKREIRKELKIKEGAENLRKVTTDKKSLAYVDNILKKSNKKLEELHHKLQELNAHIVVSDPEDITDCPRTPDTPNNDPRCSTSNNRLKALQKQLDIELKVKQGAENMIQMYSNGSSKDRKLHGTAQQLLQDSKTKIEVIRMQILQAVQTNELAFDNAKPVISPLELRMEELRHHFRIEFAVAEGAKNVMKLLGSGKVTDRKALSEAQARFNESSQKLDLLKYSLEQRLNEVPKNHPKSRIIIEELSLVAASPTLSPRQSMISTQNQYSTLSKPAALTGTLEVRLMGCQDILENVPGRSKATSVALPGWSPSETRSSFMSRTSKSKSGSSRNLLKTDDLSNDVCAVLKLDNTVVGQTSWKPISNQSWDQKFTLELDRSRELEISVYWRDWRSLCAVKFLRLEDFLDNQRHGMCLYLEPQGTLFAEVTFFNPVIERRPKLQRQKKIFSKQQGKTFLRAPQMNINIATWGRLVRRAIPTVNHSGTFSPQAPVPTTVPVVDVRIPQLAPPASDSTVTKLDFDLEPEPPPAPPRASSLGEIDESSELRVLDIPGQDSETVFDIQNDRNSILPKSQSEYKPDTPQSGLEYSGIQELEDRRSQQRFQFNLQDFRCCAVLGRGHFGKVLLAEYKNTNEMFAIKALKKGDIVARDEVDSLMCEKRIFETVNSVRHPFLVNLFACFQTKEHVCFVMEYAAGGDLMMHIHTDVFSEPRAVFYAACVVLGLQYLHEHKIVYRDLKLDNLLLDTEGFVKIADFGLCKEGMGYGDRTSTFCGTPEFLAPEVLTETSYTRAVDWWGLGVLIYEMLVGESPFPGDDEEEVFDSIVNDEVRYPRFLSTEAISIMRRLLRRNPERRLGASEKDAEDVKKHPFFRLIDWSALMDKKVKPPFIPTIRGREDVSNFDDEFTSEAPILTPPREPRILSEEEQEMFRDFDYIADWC

[12] = target: Maternal embryonic leucine zipper kinase (Homo sapiens, UniProt Q14680)
[13] = target: Receptor-type tyrosine-protein kinase FLT3 (Homo sapiens, UniProt P36888);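 also: FLT3 was tested as one member of a kinome-wide kinase panel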
[14] = target: Rho-associated protein kinase 1 (Homo sapiens, UniProt Q13464);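 also: measured within a broad kinome-wide panel profiling many kinases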
[15] = target: Serine/threonine-protein kinase Chk2 (Homo sapiens, UniProt O96017);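 also: CHEK2 entry within a kinome-wide screening panel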
[16] = target: Serine/threonine-protein kinase PAK 4 (Homo sapiens, UniProt O96013);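 also: value obtained within a kinome profiling panel in which PAK4 was one of the panel members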
Serine/threonine-protein kinase PAK 4, sequence (O96013 whole entry): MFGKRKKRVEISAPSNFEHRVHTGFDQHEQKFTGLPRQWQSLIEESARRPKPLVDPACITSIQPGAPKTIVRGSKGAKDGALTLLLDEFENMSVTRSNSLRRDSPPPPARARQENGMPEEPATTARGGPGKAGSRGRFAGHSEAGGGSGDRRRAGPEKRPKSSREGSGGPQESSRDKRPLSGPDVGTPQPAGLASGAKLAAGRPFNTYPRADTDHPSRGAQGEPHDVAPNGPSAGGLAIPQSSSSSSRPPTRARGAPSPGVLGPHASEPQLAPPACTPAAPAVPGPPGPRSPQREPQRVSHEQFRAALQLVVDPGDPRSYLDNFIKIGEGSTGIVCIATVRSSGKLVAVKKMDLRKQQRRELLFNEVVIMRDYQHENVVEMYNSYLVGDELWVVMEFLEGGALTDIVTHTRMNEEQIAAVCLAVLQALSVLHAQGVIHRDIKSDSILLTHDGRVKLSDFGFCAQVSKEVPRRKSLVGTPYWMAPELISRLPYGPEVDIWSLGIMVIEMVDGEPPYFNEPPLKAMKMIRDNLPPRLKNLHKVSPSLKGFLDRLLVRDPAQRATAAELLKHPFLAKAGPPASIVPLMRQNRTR

[17] = target: Insulin-like growth factor 1 receptor (Homo sapiens, UniProt P08069); experiment: Navigating the Kinome. Panel member name: IGF1R
Insulin-like growth factor 1 receptor, sequence (P08069 31-736 limits assumed): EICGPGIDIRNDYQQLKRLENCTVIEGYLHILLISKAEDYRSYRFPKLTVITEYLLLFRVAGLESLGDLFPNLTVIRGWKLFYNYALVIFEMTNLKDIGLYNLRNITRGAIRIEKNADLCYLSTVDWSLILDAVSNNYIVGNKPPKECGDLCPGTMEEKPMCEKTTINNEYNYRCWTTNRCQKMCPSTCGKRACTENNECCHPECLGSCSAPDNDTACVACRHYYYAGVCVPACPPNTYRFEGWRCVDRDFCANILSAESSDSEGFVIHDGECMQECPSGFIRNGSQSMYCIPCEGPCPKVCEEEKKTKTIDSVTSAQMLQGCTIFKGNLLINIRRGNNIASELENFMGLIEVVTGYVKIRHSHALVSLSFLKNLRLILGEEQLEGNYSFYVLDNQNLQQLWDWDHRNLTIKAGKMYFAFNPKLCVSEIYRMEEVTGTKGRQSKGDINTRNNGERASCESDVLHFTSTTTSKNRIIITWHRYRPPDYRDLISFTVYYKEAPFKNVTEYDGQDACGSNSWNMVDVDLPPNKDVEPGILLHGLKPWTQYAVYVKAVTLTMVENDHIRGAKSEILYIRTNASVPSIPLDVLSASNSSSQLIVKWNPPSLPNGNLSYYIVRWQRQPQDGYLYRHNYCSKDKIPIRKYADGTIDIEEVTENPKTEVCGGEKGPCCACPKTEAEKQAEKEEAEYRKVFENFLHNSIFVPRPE
Insulin-like growth factor 1 receptor, sequence (P08069 741-1367 limits assumed): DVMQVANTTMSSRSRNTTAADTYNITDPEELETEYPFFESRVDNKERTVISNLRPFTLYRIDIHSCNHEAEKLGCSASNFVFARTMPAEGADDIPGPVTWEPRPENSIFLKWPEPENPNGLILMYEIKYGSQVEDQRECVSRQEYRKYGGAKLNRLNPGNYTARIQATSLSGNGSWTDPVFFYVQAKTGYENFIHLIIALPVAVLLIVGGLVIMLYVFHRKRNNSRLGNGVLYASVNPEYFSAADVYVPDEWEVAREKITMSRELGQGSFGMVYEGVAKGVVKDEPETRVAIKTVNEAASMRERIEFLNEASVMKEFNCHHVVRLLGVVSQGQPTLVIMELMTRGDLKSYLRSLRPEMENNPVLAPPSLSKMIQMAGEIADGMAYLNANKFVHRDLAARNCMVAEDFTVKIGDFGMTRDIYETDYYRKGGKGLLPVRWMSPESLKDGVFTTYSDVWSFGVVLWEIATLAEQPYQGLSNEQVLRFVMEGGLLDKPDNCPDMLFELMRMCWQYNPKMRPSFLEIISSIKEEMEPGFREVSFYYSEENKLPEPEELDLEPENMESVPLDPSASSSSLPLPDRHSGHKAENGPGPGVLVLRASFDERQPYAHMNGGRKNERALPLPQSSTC

[18] = target: Tyrosine-protein kinase Srms (Homo sapiens, UniProt Q9H3Y6);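 also: SRMS measured as one member of a kinome-wide kinase profiling panel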
Insulin receptor = Insulin receptor (Homo sapiens, UniProt P06213);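 also: insulin receptor kinase tested as one member of a kinome-wide kinase panel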
[19] = target: Mitogen-activated protein kinase kinase kinase kinase 5 (Homo sapiens, UniProt Q9Y4K4);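 also: measured as one member of a kinome-spanning kinase panel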
[20] = target: Tyrosine-protein kinase BTK (Homo sapiens, UniProt Q06187)
[21] = target: Serine/threonine-protein kinase pim-2 (Homo sapiens, UniProt Q9P1W9);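 also: value comes from a broad kinase panel profiling study in which PIM2 was one of the panel members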
Serine/threonine-protein kinase pim-2, sequence (Q9P1W9 whole entry): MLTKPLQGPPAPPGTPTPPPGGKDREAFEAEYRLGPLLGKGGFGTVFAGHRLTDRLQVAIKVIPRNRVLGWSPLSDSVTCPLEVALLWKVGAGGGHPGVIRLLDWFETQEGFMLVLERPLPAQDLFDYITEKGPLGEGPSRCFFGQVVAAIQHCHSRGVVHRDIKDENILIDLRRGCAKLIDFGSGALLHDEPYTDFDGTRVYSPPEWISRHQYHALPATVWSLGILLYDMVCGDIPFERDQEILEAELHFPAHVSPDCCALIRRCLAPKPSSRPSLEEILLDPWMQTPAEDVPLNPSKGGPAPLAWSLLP

[22] = target: Non-receptor tyrosine-protein kinase TYK2 (Homo sapiens, UniProt P29597)
[23] = target: Casein kinase I isoform gamma-1 (Homo sapiens, UniProt Q9HCP0);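 also: measured as the CSNK1G1 member of a kinome profiling panel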
[24] = target: Tyrosine-protein kinase Fer (Homo sapiens, UniProt P16591);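 also: FER tested as one member of a kinome panel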

Measured: Ki

Tyrosine-protein kinase receptor UFO, sequence (P30530 whole entry): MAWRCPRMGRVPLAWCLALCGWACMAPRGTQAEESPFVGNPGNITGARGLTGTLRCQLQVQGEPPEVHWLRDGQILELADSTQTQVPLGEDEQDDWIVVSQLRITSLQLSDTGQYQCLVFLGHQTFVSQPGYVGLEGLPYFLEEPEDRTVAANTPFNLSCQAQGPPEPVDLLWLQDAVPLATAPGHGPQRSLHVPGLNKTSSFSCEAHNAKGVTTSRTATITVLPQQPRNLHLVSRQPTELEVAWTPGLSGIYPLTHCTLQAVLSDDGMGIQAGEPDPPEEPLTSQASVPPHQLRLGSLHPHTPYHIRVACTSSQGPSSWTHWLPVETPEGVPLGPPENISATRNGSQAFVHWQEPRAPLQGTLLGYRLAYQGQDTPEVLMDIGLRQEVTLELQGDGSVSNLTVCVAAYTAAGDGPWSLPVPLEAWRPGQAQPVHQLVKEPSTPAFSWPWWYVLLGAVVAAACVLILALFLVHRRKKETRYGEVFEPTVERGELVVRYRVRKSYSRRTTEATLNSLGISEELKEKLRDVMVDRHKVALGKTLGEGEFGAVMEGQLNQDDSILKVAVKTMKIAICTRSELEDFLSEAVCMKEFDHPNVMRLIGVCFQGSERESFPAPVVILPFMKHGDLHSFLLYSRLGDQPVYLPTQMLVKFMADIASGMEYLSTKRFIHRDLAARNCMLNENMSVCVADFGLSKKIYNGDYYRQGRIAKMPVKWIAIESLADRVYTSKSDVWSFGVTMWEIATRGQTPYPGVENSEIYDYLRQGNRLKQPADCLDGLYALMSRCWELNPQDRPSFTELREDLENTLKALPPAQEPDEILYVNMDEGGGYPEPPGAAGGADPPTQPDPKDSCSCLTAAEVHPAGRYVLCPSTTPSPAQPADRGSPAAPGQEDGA

NC(=O)Cn1cc(-c2cc(-c3cc4ccccc4s3)c3[nH]ncc3c2)c2nc(N)ncc21
inactive: [1] > 2000 nM | [4] > 6310 nM | [6] > 2000 nM | [8] > 10000 nM | [12] > 1580 nM | [16] > 5010 nM | [17] > 2000 nM | [18] > 1580 nM | Insulin receptor > 5010 nM | [20] > 1260 nM | [21] > 1580 nM | [22] > 2000 nM | [23] > 6310 nM | [24] > 1580 nM
active: [2] 25.1 nM | [3] 1260 nM | [5] 631 nM | [7] 2510 nM | [9] 100 nM | [10] 501 nM | [11] 79.4 nM | [13] 1260 nM | [14] 1580 nM | [15] 39.8 nM | [19] 631 nM
